Laboratory results taken from patent US7927820B2 (priority 2004, dated 2011).
Like-named read-outs stand apart in the source and are kept apart here. Bridges are numbered along the chain shown (N, C = ends). Where no end group is shown, it is not given here.

Assays:
[1] = molecular target: P/Q-type calcium channels (Homo sapiens, UniProt O00555); conditions: cited from earlier work
[2] = molecular target: N-type calcium channels in cell membranes isolated from rat brain (Rattus norvegicus, UniProt Q02294); assay type: binding
Sequence of N-type calcium channels in cell membranes isolated from rat brain (Q02294 whole entry, looked up): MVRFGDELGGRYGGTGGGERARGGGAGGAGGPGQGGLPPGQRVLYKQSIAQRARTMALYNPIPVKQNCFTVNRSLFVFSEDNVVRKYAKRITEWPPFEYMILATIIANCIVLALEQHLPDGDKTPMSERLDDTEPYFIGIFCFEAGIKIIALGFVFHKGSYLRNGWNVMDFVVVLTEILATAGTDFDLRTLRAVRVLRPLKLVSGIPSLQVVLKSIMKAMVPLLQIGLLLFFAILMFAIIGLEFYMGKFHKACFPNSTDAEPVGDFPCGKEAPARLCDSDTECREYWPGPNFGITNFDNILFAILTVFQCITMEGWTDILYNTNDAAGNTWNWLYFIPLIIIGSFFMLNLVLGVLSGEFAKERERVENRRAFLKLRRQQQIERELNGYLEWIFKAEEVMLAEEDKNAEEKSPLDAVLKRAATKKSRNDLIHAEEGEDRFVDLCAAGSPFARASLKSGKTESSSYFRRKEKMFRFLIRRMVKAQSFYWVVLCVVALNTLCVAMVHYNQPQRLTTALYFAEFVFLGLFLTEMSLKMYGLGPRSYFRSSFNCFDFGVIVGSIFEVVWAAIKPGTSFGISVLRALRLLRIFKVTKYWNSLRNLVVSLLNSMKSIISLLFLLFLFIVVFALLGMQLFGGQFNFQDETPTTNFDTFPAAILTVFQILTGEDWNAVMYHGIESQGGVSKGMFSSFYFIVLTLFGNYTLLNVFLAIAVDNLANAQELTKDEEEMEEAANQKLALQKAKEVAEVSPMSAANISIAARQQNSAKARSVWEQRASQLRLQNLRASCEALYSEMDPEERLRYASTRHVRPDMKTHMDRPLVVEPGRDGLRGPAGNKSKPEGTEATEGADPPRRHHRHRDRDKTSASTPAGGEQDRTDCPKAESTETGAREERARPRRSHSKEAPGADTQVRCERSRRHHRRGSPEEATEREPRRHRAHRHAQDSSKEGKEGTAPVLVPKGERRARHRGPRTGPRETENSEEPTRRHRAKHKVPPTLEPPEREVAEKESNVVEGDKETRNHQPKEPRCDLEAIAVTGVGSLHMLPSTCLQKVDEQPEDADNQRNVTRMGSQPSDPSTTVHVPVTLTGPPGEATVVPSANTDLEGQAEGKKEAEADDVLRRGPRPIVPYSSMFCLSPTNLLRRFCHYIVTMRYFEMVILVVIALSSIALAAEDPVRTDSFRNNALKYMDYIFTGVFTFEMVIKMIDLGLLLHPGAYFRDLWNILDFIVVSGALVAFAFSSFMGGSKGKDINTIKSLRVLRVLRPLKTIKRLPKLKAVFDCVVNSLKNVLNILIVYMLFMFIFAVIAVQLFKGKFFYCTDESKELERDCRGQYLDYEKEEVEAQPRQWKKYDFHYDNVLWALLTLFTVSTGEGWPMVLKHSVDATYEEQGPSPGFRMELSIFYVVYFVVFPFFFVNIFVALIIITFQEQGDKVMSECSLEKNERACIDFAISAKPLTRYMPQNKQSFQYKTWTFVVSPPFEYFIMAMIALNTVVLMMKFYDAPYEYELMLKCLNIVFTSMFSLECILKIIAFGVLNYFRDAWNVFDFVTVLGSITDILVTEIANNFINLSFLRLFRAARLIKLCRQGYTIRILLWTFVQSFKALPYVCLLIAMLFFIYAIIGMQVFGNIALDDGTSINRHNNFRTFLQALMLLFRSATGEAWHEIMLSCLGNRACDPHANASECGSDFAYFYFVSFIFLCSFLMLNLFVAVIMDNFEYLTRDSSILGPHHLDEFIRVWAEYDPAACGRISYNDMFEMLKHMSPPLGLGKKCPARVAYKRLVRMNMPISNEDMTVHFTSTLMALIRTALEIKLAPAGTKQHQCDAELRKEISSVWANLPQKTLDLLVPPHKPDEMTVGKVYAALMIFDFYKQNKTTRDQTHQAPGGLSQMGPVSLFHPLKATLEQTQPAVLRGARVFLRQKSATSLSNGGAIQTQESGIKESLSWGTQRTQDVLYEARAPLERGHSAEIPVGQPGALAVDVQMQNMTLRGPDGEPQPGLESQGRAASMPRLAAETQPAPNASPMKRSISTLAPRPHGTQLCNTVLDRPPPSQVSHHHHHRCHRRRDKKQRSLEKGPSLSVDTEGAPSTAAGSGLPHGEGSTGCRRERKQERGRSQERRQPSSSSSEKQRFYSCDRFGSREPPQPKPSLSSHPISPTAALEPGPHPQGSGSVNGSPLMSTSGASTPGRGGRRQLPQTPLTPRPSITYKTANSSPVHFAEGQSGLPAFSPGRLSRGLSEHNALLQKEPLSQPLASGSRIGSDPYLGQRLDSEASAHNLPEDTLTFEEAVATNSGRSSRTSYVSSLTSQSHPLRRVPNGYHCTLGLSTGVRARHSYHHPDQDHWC

[3] = molecular target: N-type calcium channels (Homo sapiens, UniProt Q00975); conditions: cited from earlier work
Sequence of N-type calcium channels (Q00975 whole entry, looked up): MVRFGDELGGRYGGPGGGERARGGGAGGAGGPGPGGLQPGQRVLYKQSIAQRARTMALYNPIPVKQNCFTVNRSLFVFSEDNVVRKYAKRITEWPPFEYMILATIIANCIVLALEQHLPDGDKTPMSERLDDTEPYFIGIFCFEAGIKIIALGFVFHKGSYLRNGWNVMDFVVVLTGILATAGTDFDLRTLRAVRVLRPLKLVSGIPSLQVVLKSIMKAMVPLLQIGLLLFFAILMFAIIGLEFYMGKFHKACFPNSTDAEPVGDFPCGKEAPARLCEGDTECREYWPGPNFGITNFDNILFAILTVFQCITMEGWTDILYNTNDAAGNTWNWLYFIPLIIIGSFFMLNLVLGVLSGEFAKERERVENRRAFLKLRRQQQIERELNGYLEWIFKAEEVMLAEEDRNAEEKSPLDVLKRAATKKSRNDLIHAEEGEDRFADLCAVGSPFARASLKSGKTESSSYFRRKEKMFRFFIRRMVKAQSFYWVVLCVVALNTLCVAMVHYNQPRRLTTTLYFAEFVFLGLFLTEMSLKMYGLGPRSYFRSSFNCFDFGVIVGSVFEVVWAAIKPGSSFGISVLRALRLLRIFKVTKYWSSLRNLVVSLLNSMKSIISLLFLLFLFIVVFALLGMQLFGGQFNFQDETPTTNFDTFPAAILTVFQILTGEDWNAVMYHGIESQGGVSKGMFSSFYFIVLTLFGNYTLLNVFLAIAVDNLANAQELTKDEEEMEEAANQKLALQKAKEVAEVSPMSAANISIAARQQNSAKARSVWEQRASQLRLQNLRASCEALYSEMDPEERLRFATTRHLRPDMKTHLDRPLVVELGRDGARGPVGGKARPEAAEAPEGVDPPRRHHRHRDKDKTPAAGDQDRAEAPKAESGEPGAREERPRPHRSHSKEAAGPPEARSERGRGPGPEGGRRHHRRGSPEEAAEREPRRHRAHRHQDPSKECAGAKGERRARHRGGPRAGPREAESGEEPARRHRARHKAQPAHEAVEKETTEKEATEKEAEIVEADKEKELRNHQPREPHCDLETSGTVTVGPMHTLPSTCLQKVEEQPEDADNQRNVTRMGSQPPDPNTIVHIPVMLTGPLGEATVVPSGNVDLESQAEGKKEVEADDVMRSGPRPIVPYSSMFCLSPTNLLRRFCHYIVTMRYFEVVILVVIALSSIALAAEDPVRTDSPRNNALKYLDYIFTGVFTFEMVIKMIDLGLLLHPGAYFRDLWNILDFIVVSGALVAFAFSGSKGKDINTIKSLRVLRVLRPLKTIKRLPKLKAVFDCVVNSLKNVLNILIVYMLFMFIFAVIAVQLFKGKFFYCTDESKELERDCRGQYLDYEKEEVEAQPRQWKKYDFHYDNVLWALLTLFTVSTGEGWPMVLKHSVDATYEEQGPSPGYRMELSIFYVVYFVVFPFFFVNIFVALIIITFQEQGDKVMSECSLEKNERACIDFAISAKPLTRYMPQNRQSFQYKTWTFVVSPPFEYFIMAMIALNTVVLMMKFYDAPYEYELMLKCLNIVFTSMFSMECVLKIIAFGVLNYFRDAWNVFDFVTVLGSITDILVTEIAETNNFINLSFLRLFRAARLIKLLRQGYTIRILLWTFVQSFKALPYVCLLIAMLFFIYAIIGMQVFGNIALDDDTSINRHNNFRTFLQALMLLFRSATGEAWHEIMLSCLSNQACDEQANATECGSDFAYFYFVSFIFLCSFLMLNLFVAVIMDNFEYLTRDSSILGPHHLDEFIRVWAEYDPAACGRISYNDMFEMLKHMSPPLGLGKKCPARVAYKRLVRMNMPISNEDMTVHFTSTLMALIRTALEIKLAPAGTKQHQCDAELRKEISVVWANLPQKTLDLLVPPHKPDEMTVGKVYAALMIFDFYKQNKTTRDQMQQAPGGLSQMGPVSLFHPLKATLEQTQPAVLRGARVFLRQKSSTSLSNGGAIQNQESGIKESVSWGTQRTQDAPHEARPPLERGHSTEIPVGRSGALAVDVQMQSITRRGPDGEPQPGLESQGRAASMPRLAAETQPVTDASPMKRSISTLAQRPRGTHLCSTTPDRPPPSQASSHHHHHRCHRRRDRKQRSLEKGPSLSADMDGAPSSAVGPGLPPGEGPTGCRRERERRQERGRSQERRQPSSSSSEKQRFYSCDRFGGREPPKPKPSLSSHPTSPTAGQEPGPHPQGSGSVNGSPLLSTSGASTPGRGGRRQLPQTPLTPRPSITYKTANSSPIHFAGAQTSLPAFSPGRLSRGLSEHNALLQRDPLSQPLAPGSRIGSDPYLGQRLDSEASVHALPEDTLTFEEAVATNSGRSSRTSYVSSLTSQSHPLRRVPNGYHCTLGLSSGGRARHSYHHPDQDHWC

| Substance | P/Q-type calcium channel inhibition or binding (description) ([1]; literature) | relative binding affinity (order of displacement of [125I]GVIA binding) [2] | N-type calcium channel block (description) [3] | P/Q-type calcium channel inhibition or binding (description) [1] |
| --- | --- | --- | --- | --- |
| KKKCIAKDYGRCKWGGTPCCRGRGCICSIMGTNCECKPRLIMEGLGLA (disulfide 4-20, 12-25, 19-36, 27-34 (inferred)) [ω-Agatoxin, ω-Agatoxin IVA] | has been shown to bind | lowest relative binding affinity | – | – |
| ω-conotoxin GVIA | – | highest relative binding affinity | potent and selective blocker | – |
| ω-conotoxin MVIIC | – | – | weak inhibitor | potent inhibitor |
